Patent publication US8791143B2, “Anthranilic diamide derivatives having cyclic side-chains” (priority 2010, dated 2014)
Like-named read-outs stand apart in the source and are kept apart here. Values belong to the molecule of their own block, whether it stands above or below them.

Legend:
[1] = log P by HPLC on reversed-phase columns (EEC Directive 79/831 Annex V.A8); type: physicochemical
[2] = tested on: green peach aphid (Myzus persicae); assay: Myzus test (MYZUPE spray treatment); type: in vivo; settings: for inhibition at 20 g/ha / inhibition at 100 g/ha: 6 d, comparison with prior art
[3] = tested on: caterpillars of the armyworm (Spodoptera frugiperda); assay: Spodoptera frugiperda test (SPODFR spray treatment); type: in vivo; settings: for pest or weed control at 100 g/ha: read-out: activity in % (caterpillars killed)
[4] = tested on: larvae of the mustard beetle (Phaedon cochleariae); assay: Phaedon test (PHAECO spray treatment); settings: for inhibition at 20 g/ha / pest or weed control at 100 g/ha: Phaedon cochleariae, 168 h; for inhibition at 20 g/ha: read-out: % Activity PHAECO; for pest or weed control at 100 g/ha: read-out: activity in % (beetle larvae killed)
[5] = Myzus persicae, 144 h, read-out: activity in % (aphids killed)
[6] = application rate 100 g/ha, after 7 days
[7] = Spodoptera frugiperda, 168 h, 7 d, comparison with prior art
[8] = reversed-phase C18 HPLC column, pH 2.7, HPLC reversed-phase C18, acidic range pH 2.7 (HCOOH), only or first value of the cell, read-out: log P
[9] = Myzus persicae, 144 h, application rate 100 g/ha, after 6 days, read-out: activity in % (aphids killed)
[10] = Spodoptera frugiperda, 168 h, application rate 100 g/ha, after 7 days

SMILES: Cc1cc(C#N)cc(C(=O)NC2COC2)c1NC(=O)c1cc(Cn2nnc(C(F)(F)F)n2)nn1-c1ncccc1Cl [Example 1]
chromatographic logP ([1]; pH 2.7, log P): 2.49
pest or weed control at 100 g/ha [2, 5]: 90%
inhibition at 20 g/ha ([2]; Myzus persicae, 144 h): 100%
activity in % (caterpillars killed) [3, 6]: 100%
activity in % (beetle larvae killed) [4, 6]: 100%

SMILES: Cc1cc(Cl)cc(C(=O)NC2COC2)c1NC(=O)c1cc(Cn2nnc(C(F)(F)F)n2)nn1-c1ncccc1Cl [Example 2]
chromatographic logP ([1]; pH 2.7, log P): 2.8
pest or weed control at 100 g/ha [2, 5]: 100%
inhibition at 100 g/ha ([2]; Myzus persicae, 144 h): 100%
pest or weed control at 100 g/ha ([3]; Spodoptera frugiperda, 168 h): 100%
inhibition at 20 g/ha [3, 7]: 100%
inhibition at 20 g/ha [4]: 100%
pest or weed control at 100 g/ha [4]: 100%

SMILES: Cc1cc(Br)cc(C(=O)NC2COC2)c1NC(=O)c1cc(Cn2nnc(C(F)(F)F)n2)nn1-c1ncccc1Cl [Example 3]
chromatographic logP ([1]; pH 2.7, log P): 2.87
pest or weed control at 100 g/ha [2, 5]: 100%
pest or weed control at 100 g/ha ([3]; Spodoptera frugiperda, 168 h): 100%
pest or weed control at 100 g/ha [4]: 100%

SMILES: Cc1cc(F)cc(C(=O)NC2COC2)c1NC(=O)c1cc(Cn2nnc(C(F)(F)F)n2)nn1-c1ncccc1Cl [Example 4]
chromatographic logP ([1]; pH 2.7, log P): 2.53
pest or weed control at 100 g/ha [2, 5]: 100%
pest or weed control at 100 g/ha ([3]; Spodoptera frugiperda, 168 h): 100%
pest or weed control at 100 g/ha [4]: 100%

SMILES: Cc1cc(I)cc(C(=O)NC2COC2)c1NC(=O)c1cc(Cn2nnc(C(F)(F)F)n2)nn1-c1ncccc1Cl [Example 6]
chromatographic logP ([1]; pH 2.7, log P): 3
pest or weed control at 100 g/ha [2, 5]: 80%
pest or weed control at 100 g/ha ([3]; Spodoptera frugiperda, 168 h): 100%
pest or weed control at 100 g/ha [4]: 100%

SMILES: Cc1cc(C)c(NC(=O)c2cc(Cn3nnc(C(F)(F)F)n3)nn2-c2ncccc2Cl)c(C(=O)NC2COC2)c1 [Example 7]
chromatographic logP ([1]; pH 2.7, log P): 2.67
pest or weed control at 100 g/ha [2, 5]: 90%
pest or weed control at 100 g/ha ([3]; Spodoptera frugiperda, 168 h): 100%
pest or weed control at 100 g/ha [4]: 100%

SMILES: O=C(NC1COC1)c1cc(Cl)cc(Cl)c1NC(=O)c1cc(Cn2nnc(C(F)(F)C(F)(F)F)n2)nn1-c1ncccc1Cl [Example 10]
chromatographic logP ([1]; pH 2.7, log P): 3.18
pest or weed control at 500 g/ha [2, 5]: 100%
pest or weed control at 100 g/ha ([3]; Spodoptera frugiperda, 168 h): 100%
pest or weed control at 100 g/ha [4]: 100%

SMILES: Cc1cc(C#N)cc(C(=O)NC2COC2)c1NC(=O)c1cc(Cn2nnc(C(F)(F)C(F)(F)F)n2)nn1-c1ncccc1Cl [Example 14]
chromatographic logP ([1]; pH 2.7, log P): 2.87
pest or weed control at 100 g/ha [2, 5]: 90%
pest or weed control at 100 g/ha ([3]; Spodoptera frugiperda, 168 h): 100%
pest or weed control at 100 g/ha [4]: 100%

SMILES: Cc1cc(C#N)cc(C(=O)NC2CSC2)c1NC(=O)c1cc(Cn2nnc(C(F)(F)F)n2)nn1-c1ncccc1Cl [Example 15]
chromatographic logP ([1]; pH 2.7, log P): 3.06
pest or weed control at 100 g/ha [2, 5]: 100%
pest or weed control at 100 g/ha ([3]; Spodoptera frugiperda, 168 h): 100%
pest or weed control at 100 g/ha [4]: 100%

SMILES: Cc1cc(C#N)cc(C(=O)NC2COC2)c1NC(=O)c1cc(Cn2nnc(C(F)(F)F)n2)nn1-c1ncccc1Cl [Example 20]
log P ([1]; pH 2.7): 2.51
activity in % (aphids killed) ([2]; application rate 100 g/ha, after 6 days): 90%
pest or weed control at 100 g/ha ([3]; Spodoptera frugiperda, 168 h): 100%
pest or weed control at 100 g/ha [4]: 100%

chromatographic logP [1, 8]: 3.46
SMILES: Cc1cc(C#N)cc(C(=O)NC2CSC2)c1NC(=O)c1cc(Cn2nnc(C(F)(F)F)n2)nn1-c1ccccc1Cl [Example 25]
pest or weed control at 100 g/ha [2, 9]: 100%
pest or weed control at 100 g/ha [3, 10]: 100%
pest or weed control at 100 g/ha [4]: 100%

chromatographic logP [1, 8]: 3.65
SMILES: Cc1cc(C#N)cc(C(=O)NC2CCSCC2)c1NC(=O)c1cc(Cn2nnc(C(F)(F)F)n2)nn1-c1ccccc1Cl [Example 58]
pest or weed control at 100 g/ha [2, 9]: 100%
pest or weed control at 100 g/ha [4]: 100%

chromatographic logP [1, 8]: 4.23
SMILES: Cc1cc(C#N)cc(C(=O)NCc2cccc(OC(F)(F)F)c2)c1NC(=O)c1cc(Cn2nnc(C(F)(F)F)n2)nn1-c1c(Cl)cccc1Cl [Example 214]
pest or weed control at 100 g/ha [3, 10]: 100%
pest or weed control at 100 g/ha [4]: 100%

chromatographic logP [1, 8]: 3.78
SMILES: Cc1cc(C#N)cc(C(=O)NCc2cccc(OC(F)F)c2)c1NC(=O)c1cc(Cn2nnc(C(F)(F)F)n2)nn1-c1c(Cl)cccc1Cl [Example 215]
pest or weed control at 100 g/ha [3, 10]: 100%
pest or weed control at 100 g/ha [4]: 100%

chromatographic logP [1, 8]: 4.1
SMILES: Cc1cc(C#N)cc(C(=O)NCc2ccc(OC(F)F)cc2)c1NC(=O)c1cc(Cn2nnc(C(F)(F)F)n2)nn1-c1c(Cl)cccc1Cl [Example 216]
pest or weed control at 100 g/ha [3, 10]: 100%
pest or weed control at 100 g/ha [4]: 100%

chromatographic logP [1, 8]: 4.28
SMILES: Cc1cc(C#N)cc(C(=O)NCc2ccccc2OC(F)(F)F)c1NC(=O)c1cc(Cn2nnc(C(F)(F)F)n2)nn1-c1ccccc1Cl [Example 217]
pest or weed control at 100 g/ha [3, 10]: 100%
pest or weed control at 100 g/ha [4]: 100%

SMILES: Cc1cccc(CNC(=O)c2cc(Cl)cc(C)c2NC(=O)c2cc(Cn3nnc(C(F)(F)F)n3)nn2-c2ncccc2Cl)n1 [Example 225]
chromatographic logP ([1]; pH 2.7, log P): 2.24
pest or weed control at 100 g/ha ([3]; Spodoptera frugiperda, 168 h): 100%
pest or weed control at 100 g/ha [4]: 100%

chromatographic logP [1, 8]: 3.7
SMILES: Cc1cc(Cl)cc(C(=O)NCc2ccc(C(F)(F)F)cn2)c1NC(=O)c1cc(Cn2nnc(C(F)(F)F)n2)nn1-c1ncccc1Cl [Example 226]
pest or weed control at 100 g/ha [3, 10]: 100%
pest or weed control at 100 g/ha [4]: 100%

SMILES: CCc1cccc(CNC(=O)c2cc(Cl)cc(C)c2NC(=O)c2cc(Cn3nnc(C(F)(F)F)n3)nn2-c2ncccc2Cl)n1 [Example 228]
chromatographic logP ([1]; pH 2.7, log P): 2.22
pest or weed control at 100 g/ha ([3]; Spodoptera frugiperda, 168 h): 100%
pest or weed control at 100 g/ha [4]: 100%

chromatographic logP [1, 8]: 4.23
SMILES: Cc1cc(Cl)cc(C(=O)NCc2ncc(C(F)(F)F)cc2Cl)c1NC(=O)c1cc(Cn2nnc(C(F)(F)F)n2)nn1-c1ncccc1Cl [Example 230]
pest or weed control at 100 g/ha [3, 10]: 100%
pest or weed control at 100 g/ha [4]: 100%

SMILES: Cc1cc(Cl)cc(C(=O)NCc2cc(Cl)ccn2)c1NC(=O)c1cc(Cn2nnc(C(F)(F)F)n2)nn1-c1ncccc1Cl [Example 232]
chromatographic logP ([1]; pH 2.7, log P): 3.45
pest or weed control at 100 g/ha ([3]; Spodoptera frugiperda, 168 h): 100%
pest or weed control at 100 g/ha [4]: 100%

chromatographic logP [1, 8]: 4.27
SMILES: Cc1cc(Cl)cc(C(=O)NCc2cccc(-c3ccccc3)n2)c1NC(=O)c1cc(Cn2nnc(C(F)(F)F)n2)nn1-c1ncccc1Cl [Example 233]
pest or weed control at 100 g/ha [3, 10]: 100%
pest or weed control at 100 g/ha [4]: 100%

chromatographic logP [1, 8]: 4.04
SMILES: Cc1cc(Cl)cc(C(=O)NC(C)c2ccc(C(F)(F)F)cn2)c1NC(=O)c1cc(Cn2nnc(C(F)(F)F)n2)nn1-c1ncccc1Cl (stereo not shown) [Example 234]
pest or weed control at 100 g/ha [3, 10]: 100%
pest or weed control at 100 g/ha [4]: 100%

SMILES: Cc1cc(Cl)cc(C(=O)NCc2ccc(Cl)nc2)c1NC(=O)c1cc(Cn2nnc(C(F)(F)F)n2)nn1-c1ncccc1Cl [Example 235]
chromatographic logP ([1]; pH 2.7, log P): 3.42
pest or weed control at 100 g/ha ([3]; Spodoptera frugiperda, 168 h): 100%
pest or weed control at 100 g/ha [4]: 100%

SMILES: Cc1cc(C#N)cc(C(=O)NC2CCC2)c1NC(=O)c1cc(Cn2nnc(C(F)(F)F)n2)nn1-c1ncccc1Cl [No. 1 known WO2007/144100, reference compound]
inhibition at 20 g/ha ([2]; Myzus persicae, 144 h): 80%

SMILES: Cc1cc(C#N)cc(C(=O)NC2CCCC2)c1NC(=O)c1cc(Cn2nnc(C(F)(F)F)n2)nn1-c1ncccc1Cl [No. 2 known WO2007/144100, reference compound]
inhibition at 100 g/ha ([2]; Myzus persicae, 144 h): 70%

SMILES: Cc1cc(C#N)cc(C(=O)NC2CCCC2)c1NC(=O)c1cc(Cn2nnc(C(F)(F)F)n2)nn1-c1ccccc1Cl [No. 3 known WO2007/144100, reference compound]
inhibition at 100 g/ha ([2]; Myzus persicae, 144 h): 0%
inhibition at 100 g/ha ([3]; Spodoptera frugiperda, 168 h, 100 g/ha, 7 d, comparison with prior art): 83%

SMILES: Cc1cc(Cl)cc(C(=O)NC2CCC2)c1NC(=O)c1cc(Cn2nnc(C(F)(F)F)n2)nn1-c1ncccc1Cl [No. 4 known WO2007/144100, reference compound]
inhibition at 100 g/ha ([2]; Myzus persicae, 144 h): 0%
inhibition at 20 g/ha [3, 7]: 83%
inhibition at 20 g/ha [4]: 33%
